What was measured:
Type in all cases: cell-based
Conditions in all cases: fluorescent calcium assay
TRPML2 = target: T1, TRPML2 (Homo sapiens, UniProt Q8IZK6); assay: Fluorescent TRPML2 assay (performed as for TRPML1, substituting the TRPML2 subtype)
T1 construct: expressed in transfected cells
T1 sequence (Q8IZK6 1-566): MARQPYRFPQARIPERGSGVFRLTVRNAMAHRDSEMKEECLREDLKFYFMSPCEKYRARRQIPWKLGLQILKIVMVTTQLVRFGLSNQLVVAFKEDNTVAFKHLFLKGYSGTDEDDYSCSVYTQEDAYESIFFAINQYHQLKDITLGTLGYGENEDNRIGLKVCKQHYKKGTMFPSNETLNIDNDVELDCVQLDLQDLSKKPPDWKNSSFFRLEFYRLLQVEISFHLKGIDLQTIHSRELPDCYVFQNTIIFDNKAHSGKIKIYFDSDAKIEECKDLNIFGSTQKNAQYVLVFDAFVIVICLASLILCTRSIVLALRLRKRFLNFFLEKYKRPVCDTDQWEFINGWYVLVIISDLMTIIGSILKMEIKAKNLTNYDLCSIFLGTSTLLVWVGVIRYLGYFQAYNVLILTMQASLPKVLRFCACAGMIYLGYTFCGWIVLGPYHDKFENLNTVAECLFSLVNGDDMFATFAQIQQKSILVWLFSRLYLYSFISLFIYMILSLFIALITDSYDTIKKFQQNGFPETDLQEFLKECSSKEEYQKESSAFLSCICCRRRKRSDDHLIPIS
Procedure, shortened: (§1)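 Compound series (final 6 nM-20 μM, half-log, triplicate) were added to Fluo4-AM-loaded HEK-293 Trex cells in 10 mM calcium Ringer's, expressing the human TRPML subtype after doxycycline 0.5 ug/mL induction. Percent activity versus positive/negative controls from 480/540 nm fluorescence; EC50 by non-linear regression.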

TRPML1 = TRPML1 (Homo sapiens, UniProt Q9GZU1); assay: Fluorescent TRPML1 assay (Fluo4-AM calcium fluorescence in doxycycline-induced HEK-293 Trex cells)
TRPML1, sequence (Q9GZU1 whole entry L15A/L16A/L577A/L578A, form open): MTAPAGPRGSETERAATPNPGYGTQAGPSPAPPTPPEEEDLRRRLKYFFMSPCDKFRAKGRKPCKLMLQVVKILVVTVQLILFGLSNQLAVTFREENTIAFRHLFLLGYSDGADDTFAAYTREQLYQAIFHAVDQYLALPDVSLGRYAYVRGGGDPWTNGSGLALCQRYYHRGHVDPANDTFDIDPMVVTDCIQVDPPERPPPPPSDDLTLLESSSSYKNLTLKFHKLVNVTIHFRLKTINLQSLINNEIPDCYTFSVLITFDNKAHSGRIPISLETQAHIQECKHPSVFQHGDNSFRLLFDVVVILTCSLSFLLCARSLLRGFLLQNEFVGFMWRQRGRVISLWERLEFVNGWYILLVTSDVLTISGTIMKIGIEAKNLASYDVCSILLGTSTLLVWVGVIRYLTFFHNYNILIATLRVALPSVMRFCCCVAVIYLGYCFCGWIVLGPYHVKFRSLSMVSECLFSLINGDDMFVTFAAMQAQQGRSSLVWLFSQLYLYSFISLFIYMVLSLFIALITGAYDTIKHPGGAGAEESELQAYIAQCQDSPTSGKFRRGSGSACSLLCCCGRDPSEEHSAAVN
Procedure, shortened: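 HEK-293 Trex cells stably expressing surface-directed mutant human TRPML1, induced with 0.5 µg/mL doxycycline overnight, were loaded with 1 µM Fluo4-AM and added to compound (6 nM–20 µM final, half-log steps, triplicate) in Ringer's with 10 mM calcium. Fluorescence ex 480/em 540; EC50 by non-linear regression versus plate controls.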

TRPML3 = target: T2, TRPML3 (Homo sapiens, UniProt Q8TDD5); assay: Fluorescent TRPML3 assay (performed as for TRPML1, substituting the TRPML3 subtype)
T2 construct: expressed in transfected cells
T2 sequence (Q8TDD5 1-553): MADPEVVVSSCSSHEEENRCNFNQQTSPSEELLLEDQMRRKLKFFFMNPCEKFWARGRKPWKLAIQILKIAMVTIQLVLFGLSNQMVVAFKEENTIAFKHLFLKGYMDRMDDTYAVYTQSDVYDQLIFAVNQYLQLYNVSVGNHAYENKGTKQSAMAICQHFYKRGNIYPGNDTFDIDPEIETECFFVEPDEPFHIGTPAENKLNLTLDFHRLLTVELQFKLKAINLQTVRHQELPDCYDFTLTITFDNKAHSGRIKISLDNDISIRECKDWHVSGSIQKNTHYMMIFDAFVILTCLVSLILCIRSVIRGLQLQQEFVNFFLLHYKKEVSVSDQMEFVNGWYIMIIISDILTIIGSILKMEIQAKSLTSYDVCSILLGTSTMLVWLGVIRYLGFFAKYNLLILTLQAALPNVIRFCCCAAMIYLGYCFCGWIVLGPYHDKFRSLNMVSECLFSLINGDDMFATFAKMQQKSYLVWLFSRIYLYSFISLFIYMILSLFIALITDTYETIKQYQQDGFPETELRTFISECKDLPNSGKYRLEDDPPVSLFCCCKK
Procedure, shortened: as §1

| SMILES | EC50 (TRPML2) | EC50 (TRPML1) | EC50 (TRPML3) |
| --- | --- | --- | --- |
| C[C@H]1CN(C(=O)OC(C)(C)C)CCN1c1ncnc2c1c(-c1cccnc1)cn2-c1ccc(F)c(Cl)c1 [Compound 212, tert-butyl (S)-4-(7-(3-chloro-4-fluorophenyl)-5-(pyridin-3-yl)-7H-pyrrolo[2,3-d]pyrimidin-4-yl)-3-methylpiperazine-1-carboxylate] | 100 to 500 nM | < 100 nM | < 100 nM |
| C[C@H]1CN(C(=O)OC(C)(C)C)CCN1c1ncnc2c1c(-c1cccnc1)cn2-c1cc(F)cc(F)c1 [Compound 213, tert-butyl-(S)-4-(7-(3,5-difluorophenyl)-5-(pyridin-3-yl)-7H-pyrrolo[2,3-d]pyrimidin-4-yl)-3-methylpiperazine-1-carboxylate] | 500 to 2000 nM | 100 to 500 nM | 100 to 500 nM |
| C[C@@H]1CN(c2ncnc3c2c(-c2cccnc2)cn3-c2cc(F)cc(F)c2)CCN1C(=O)OC(C)(C)C [Compound 214, tert-butyl (R)-4-(7-(3,5-difluorophenyl)-5-(pyridin-3-yl)-7H-pyrrolo[2,3-d]pyrimidin-4-yl)-2-methylpiperazine-1-carboxylate] | 500 to 2000 nM | 100 to 500 nM | 100 to 500 nM |
| C[C@@H]1CN(c2ncnc3c2c(-c2ccccn2)cn3-c2cc(F)cc(F)c2)CCN1C(=O)OC(C)(C)C [Compound 215, tert-butyl (R)-4-(7-(3,5-difluorophenyl)-5-(pyridin-2-yl)-7H-pyrrolo[2,3-d]pyrimidin-4-yl)-2-methylpiperazine-1-carboxylate] | 500 to 2000 nM | 100 to 500 nM | 100 to 500 nM |
| C[C@@H]1CN(c2ncnc3c2c(-c2ccncc2)cn3-c2cc(F)cc(F)c2)CCN1C(=O)OC(C)(C)C [Compound 216, tert-butyl (R)-4-(7-(3,5-difluorophenyl)-5-(pyridin-4-yl)-7H-pyrrolo[2,3-d]pyrimidin-4-yl)-2-methylpiperazine-1-carboxylate] | 500 to 2000 nM | < 100 nM | 100 to 500 nM |
| C[C@H]1CN(C(=O)OC(C)(C)C)CCN1c1ncnc2c1c(C1CC1)cn2-c1cccc(F)c1F [Compound 217, tert-butyl (S)-4-(5-cyclopropyl-7-(2,3-difluorophenyl)-7H-pyrrolo[2,3-d]pyrimidin-4-yl)-3-methylpiperazine-1-carboxylate] | 500 to 2000 nM | 100 to 500 nM | 100 to 500 nM |
| C[C@H]1CN(C(=O)OC(C)(C)C)CCN1c1ncnc2c1c(C1CC1)cn2-c1cc(F)ccc1F [Compound 218, tert-butyl (S)-4-(5-cyclopropyl-7-(2,5-difluorophenyl)-7H-pyrrolo[2,3-d]pyrimidin-4-yl)-3-methylpiperazine-1-carboxylate] | 500 to 2000 nM | < 100 nM | < 100 nM |
| C[C@H]1CN(C(=O)OC(C)(C)C)CCN1c1ncnc2c1c(C1CC1)cn2-c1ccc(F)c(F)c1 [Compound 219, tert-butyl (S)-4-(5-cyclopropyl-7-(3,4-difluorophenyl)-7H-pyrrolo[2,3-d]pyrimidin-4-yl)-3-methylpiperazine-1-carboxylate] | 100 to 500 nM | < 100 nM | < 100 nM |
| C[C@@H]1CN(c2ncnc3c2c(C2CC2)cn3-c2cccc(Cl)c2F)CCN1C(=O)OC(C)(C)C [Compound 220, tert-butyl (R)-4-(7-(3-chloro-2-fluorophenyl)-5-cyclopropyl-7H-pyrrolo[2,3-d]pyrimidin-4-yl)-2-methylpiperazine-1-carboxylate] | 100 to 500 nM | < 100 nM | < 100 nM |
| C[C@@H]1CN(c2ncnc3c2c(-c2ccccn2)cn3-c2cc(F)cc(Cl)c2)CCN1C(=O)OC(C)(C)C [Compound 221, tert-butyl (R)-4-(7-(3-chloro-5-fluorophenyl)-5-(pyridin-2-yl)-7H-pyrrolo[2,3-d]pyrimidin-4-yl)-2-methylpiperazine-1-carboxylate] | 100 to 500 nM | < 100 nM | < 100 nM |
| C[C@@H]1CN(c2ncnc3c2c(-c2cccnc2)cn3-c2cc(F)cc(Cl)c2)CCN1C(=O)OC(C)(C)C [Compound 222, tert-butyl (R)-4-(7-(3-chloro-5-fluorophenyl)-5-(pyridin-3-yl)-7H-pyrrolo[2,3-d]pyrimidin-4-yl)-2-methylpiperazine-1-carboxylate] | 500 to 2000 nM | < 100 nM | < 100 nM |
| C[C@@H]1CN(c2ncnc3c2c(-c2cnccn2)cn3-c2cc(F)cc(Cl)c2)CCN1C(=O)OC(C)(C)C [Compound 223, tert-butyl (R)-4-(7-(3-chloro-5-fluorophenyl)-5-(pyrazin-2-yl)-7H-pyrrolo[2,3-d]pyrimidin-4-yl)-2-methylpiperazine-1-carboxylate] | 500 to 2000 nM | 100 to 500 nM | 100 to 500 nM |
| C[C@@H]1CN(c2ncnc3c2c(C2CC2)cn3-c2cc(Cl)ccc2F)CCN1C(=O)OC(C)(C)C [Compound 224, tert-butyl (R)-4-(7-(5-chloro-2-fluorophenyl)-5-cyclopropyl-7H-pyrrolo[2,3-d]pyrimidin-4-yl)-2-methylpiperazine-1-carboxylate] | 100 to 500 nM | < 100 nM | < 100 nM |
| C[C@H]1CN(C(=O)OC(C)(C)C)CCN1c1ncnc2c1c(-c1cccnc1)cn2-c1cccc(Cl)c1 [Compound 225, tert-butyl (S)-4-(7-(3-chlorophenyl)-5-(pyridin-3-yl)-7H-pyrrolo[2,3-d]pyrimidin-4-yl)-3-methylpiperazine-1-carboxylate] | 100 to 500 nM | < 100 nM | < 100 nM |
| C[C@H]1CN(C(=O)OC(C)(C)C)CCN1c1ncnc2c1c(-c1cccnc1)cn2-c1cccc(F)c1 [Compound 226, tert-butyl (S)-4-(7-(3-fluorophenyl)-5-(pyridin-3-yl)-7H-pyrrolo[2,3-d]pyrimidin-4-yl)-3-methylpiperazine-1-carboxylate] | 500 to 2000 nM | 100 to 500 nM | 100 to 500 nM |
| C[C@H]1CN(C(=O)OC(C)(C)C)CCN1c1ncnc2c1c(N1CCOCC1)cn2-c1cc(F)cc(F)c1 [Compound 228, tert-Butyl (S)-4-(7-(3,5-difluorophenyl)-5-morpholino-7H-pyrrolo[2,3-d]pyrimidin-4-yl)-3-methylpiperazine-1-carboxylate] | 500 to 2000 nM | 100 to 500 nM | 100 to 500 nM |
| C[C@@H]1CN(C(=O)OC(C)(C)C)CCN1c1ncnc2c1c(N1CCOCC1)cn2-c1cccc(Cl)c1 [Compound 229, tert-Butyl (R)-4-(7-(3-chlorophenyl)-5-morpholino-7H-pyrrolo[2,3-d]pyrimidin-4-yl)-3-methylpiperazine-1-carboxylate] | 500 to 2000 nM | 500 to 2000 nM | 100 to 500 nM |
| C[C@H]1CN(C(=O)OC(C)(C)C)CCN1c1ncnc2c1c(N1CCOCC1)cn2-c1cccc(Cl)c1 [Compound 230, tert-Butyl (S)-4-(7-(3-chlorophenyl)-5-morpholino-7H-pyrrolo[2,3-d]pyrimidin-4-yl)-3-methylpiperazine-1-carboxylate] | 100 to 500 nM | 100 to 500 nM | < 100 nM |
| C[C@H]1CN(C(=O)OC(C)(C)C)CCN1c1ncnc2c1c(-c1ccccc1F)cn2-c1ccccn1 [Compound 231, tert-butyl (S)-4-(5-(2-fluorophenyl)-7-(pyridin-2-yl)-7H-pyrrolo[2,3-d]pyrimidin-4-yl)-3-methylpiperazine-1-carboxylate] | 100 to 500 nM | < 100 nM | < 100 nM |
| C[C@@H]1CN(c2ncnc3c2c(C2CC2)cn3-c2cc(F)cc(F)c2)[C@@H](C)CN1C(=O)OC(C)(C)C [Compound 232, tert-butyl (2R,5S)-4-(5-cyclopropyl-7-(3,5-difluorophenyl)-7H-pyrrolo[2,3-d]pyrimidin-4-yl)-2,5-dimethylpiperazine-1-carboxylate] | 500 to 2000 nM | < 100 nM | < 100 nM |

— patent publication US20250136606A1, “MODULATORS OF TRPML, THEIR COMPOSITIONS AND METHODS OF USE” (Caraway Therapeutics, Inc., priority 2021, published 2025)
